The source of these data is US11279697B2, “Aromatic derivative, preparation method for same, and medical applications thereof” (BIOARDIS LLC, priority 2017, dated 2022).

This test addresses human FGFR4 protein (460-802 amino acids) (Homo sapiens (Human), UniProt P22455). Description: FGFR4 Activity Inhibition Test (HTRF KinEASE-TK in vitro kinase assay). Conditions: compound-enzyme incubation 60 min at room temperature, kinase reaction 37° C. 40 min, 10 concentration points. It counts as biochemical. The method, then: The influence of the compound of the present invention on the activity of the tyrosine kinase FGFR4 was evaluated by an in vitro kinase assay experiment. The experimental method is summarized as follows: A HTRF® KinEASE™-TK 20000 tests kinase assay kit from CISBIO Corp. was used. The kit provided a biotin-labeled substrate, an EU-labeled phosphorylation site-specific antibody, and XL665-labeled avidin and a related buffer. FGFR4 phosphorylated the substrate, Eu-Ab identified the phosphorylated substrate, and XL665-SA binded to the biotin on the substrate, making Eu get closer to XL665, thus generating the HTRF signal. Changes in the activity of kinase was detected by reading the intensity of the HTRF signal. In the kinase assay experiment, there were mainly two steps of reaction: kinase reaction and assay reaction, respectively. In the kinase reaction, the kinase consumed ATP to phosphorylate the substrate, and at the same time produced a substrate containing a phosphate group. In the assay reaction, an assay reagent was added to terminate the kinase reaction. At the same time, the specific antibody and the XL665-labeled avidin in the assay reagent were binded to the phosphate group on the substrate and biotin respectively to generate HTRF signals. The signal intensity was directly proportional to the phosphorylation level of the substrate, and thereby the activity of the kinase FGFR4 could be quantitatively assayed. During the assay, the binding and incubation of the compound with the enzyme was carried out at room temperature for 60 min. The kinase reaction was carried out at a constant temperature of 37° C. for 40 min. […] The kinase substrates were TK (commercially available from Cisbio) and ATP (Sigma). The optical signals were read by a microplate reader TECAN Spark 10M plate reader (TECAN). The kinase reaction buffer comprised 1× Enzymatic buffer (CISBIO) 5 mM MgCl2 (Sigma) and 1 mM DTT (Sigma). […] First, the compound was dissolved and diluted with 100% DMSO into a 96-well plate at 3 concentrations: 4 mM, 40 μM, and 0.4 μM. […] Each concentration point was provided with two copy holes (starting point 10 μM, 3-fold dilution). First, 6 μL of the kinase solution was added into the 384-well assay plate, mixed uniformly and then incubated at room temperature for 60 min. Then 4 μL of the substrate reaction solution was added, and the total reaction volume was 10 μL. […] Subsequently, 10 μL of the kinase assay reagent was added and the reaction was terminated. Then the numerical values were read on the TECAN plate reader. The inhibition percentage was calculated based on the following formula: % inhibition=[1−(RLUcompound−RLUmin)/(RLUmax−RLUmin)]×100 wherein RLUcompound is the luminescence reading at the given compound concentration, RLUmin is the luminescence reading without the addition of kinase, and RLUmax is the luminescence reading without the addition of the compound. IC50 of the compound was calculated by the XLfit program in Excel.
For orientation: TR-FRET usually uses a lanthanide donor and a delayed reading to cut background.

human FGFR4 protein (460-802 amino acids), sequence (P22455 460-802): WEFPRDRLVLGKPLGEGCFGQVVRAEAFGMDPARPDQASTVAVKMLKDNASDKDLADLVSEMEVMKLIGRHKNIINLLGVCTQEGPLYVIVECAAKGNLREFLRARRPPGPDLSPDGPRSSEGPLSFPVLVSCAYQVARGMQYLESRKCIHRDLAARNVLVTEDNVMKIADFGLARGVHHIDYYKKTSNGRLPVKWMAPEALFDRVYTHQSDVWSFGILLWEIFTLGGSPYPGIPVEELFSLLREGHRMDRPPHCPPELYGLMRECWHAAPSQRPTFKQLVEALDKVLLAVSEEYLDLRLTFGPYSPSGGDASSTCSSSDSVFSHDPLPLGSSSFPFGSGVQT

As for `C=CC(=O)Nc1cnn(C)c1-c1n[nH]c2c1CC[C@@H](c1c(F)c(OC)cc(OC)c1F)C2` (single isomer, unassigned) [Compound 281-P1, N-(5-(6-(2,6-difluoro-3,5-dimethoxyphenyl)-4,5,6,7-tetrahydro-1H-indazol-3-yl)-1-methyl-1H-pyrazol-4-yl)acrylamide], inhibition was half-maximal at 5.73 nM (IC50).

Turning to `C=CC(=O)Nc1cnn(C)c1-c1n[nH]c2c1CC[C@@H](c1c(F)c(OC)cc(OC)c1Cl)C2` (single isomer, unassigned) [Compound 303-P2, N-(5-(6-(2-chloro-6-fluoro-3,5-dimethoxyphenyl)-4,5,6,7-tetrahydro-1H-indazol-3-yl)-1-methyl-1H-pyrazol-4-yl)acrylamide], the IC50 worked out at 5.5 nM.

In turn, `C=CC(=O)Nc1ccc(N2CCN(C)CC2)cc1-c1n[nH]c2c1CC[C@@H](c1c(Cl)c(OC)cc(OC)c1Cl)C2` (single isomer, unassigned) [Compound 283-P2, N-(2-(6-(2,6-dichloro-3,5-dimethoxyphenyl)-4,5,6,7-tetrahydro-1H-indazol-3-yl)-4-(4-methylpiperazin-1-yl)phenyl)acrylamide] came in with an IC50 of 45 nM.

What is called IC50 is the concentration that inhibits the measured activity by half. A low value points to higher potency.
